Measured values from ChEMBL document CHEMBL4732090, “Preparation of new 1,3-dibenzyl tetrahydropyridinylidene ammonium salts and their antimicrobial and anticellular activities” (Eur J Med Chem, 2021).

Tests used:
Plasmodium falciparum [1] = experiment: Antiplasmodial activity against Plasmodium falciparum NF54 erythrocytic stages assessed as reduction in [3H]hypoxanthine incorporation measured after 48 hrs by liquid scintillation counting method; format: functional, organism-based
Plasmodium falciparum [2] = experiment: Antiplasmodial activity against chloroquine and pyrimethamine resistant Plasmodium falciparum K1 strain; format: functional, organism-based
[3] = Selectivity index, ratio of IC50 for rat L6 cells to IC50 for Plasmodium falciparum NF54; format: toxicity; details: read-out: Ratio IC50
U-251 = experiment: Cytotoxicity against human U-251 cells assessed as inhibition of cell growth at 50 uM after 72 hrs by XTT assay relative to control; format: functional
Staphylococcus aureus = experiment: Antibacterial activity against Staphylococcus aureus ATCC 29213 assessed as diameter of inhibition zone at 10 mg/ml by disk diffusion assay; format: functional; details: read-out: DIZ
Escherichia coli = experiment: Antibacterial activity against Escherichia coli ATCC 25922 assessed as diameter of inhibition zone at 10 mg/ml by disk diffusion assay; format: functional; details: read-out: DIZ
Candida albicans = experiment: Antifungal activity against Candida albicans ATCC 90028 assessed as diameter of inhibition zone at 10 mg/ml by disk diffusion assay; format: functional; details: read-out: DIZ
Pseudomonas aeruginosa = experiment: Antibacterial activity against Pseudomonas aeruginosa ATCC 27853 assessed as diameter of inhibition zone at 10 mg/ml by disk diffusion assay; format: functional; details: read-out: DIZ
[4] = Selectivity index, ratio of IC50 for rat L6 cells to IC50 for Trypanosoma brucei rhodesiense STIB900; format: toxicity; details: read-out: Ratio IC50
L6 = experiment: Cytotoxicity against rat L6 cells after 70 hrs by Alamar blue assay; format: cell-based; details: L6, 70 h, read-out: IC50
[5] = tested on: Trypanosoma brucei rhodesiense; experiment: Trypanocidal activity against Trypanosoma brucei rhodesiense STIB900 incubated for 70 hrs by Alamar blue assay; format: functional, organism-based; details: STIB900, 70 h
[6] = tested on: Staphylococcus epidermidis; experiment: Antibacterial activity against Staphylococcus epidermis ATCC 12228 assessed as diameter of inhibition zone at 10 mg/ml by disk diffusion assay; format: functional; details: read-out: DIZ
[7] = Selectivity index, ratio of IC50 for rat L6 cells to IC50 for chloroquine and pyrimethamine resistant Plasmodium falciparum K1; format: toxicity; details: read-out: Ratio IC50
HCT-116 = experiment: Cytotoxicity against human HCT-116 cells assessed as inhibition of cell growth at 50 uM after 72 hrs by XTT assay relative to control; format: functional

Structure (SMILES)	IC50 (Plasmodium falciparum [1])	IC50 (Plasmodium falciparum [2])	selectivity ratio [3]	inhibition at 50 µM (U-251)	zone of inhibition at 10000 µg/mL (Staphylococcus aureus)	zone of inhibition at 10000 µg/mL (Escherichia coli)	zone of inhibition at 10000 µg/mL (Candida albicans)	zone of inhibition at 10000 µg/mL (Pseudomonas aeruginosa)	selectivity ratio [4]	IC50 (L6)	IC50 [5]	zone of inhibition at 10000 µg/mL [6]	selectivity ratio [7]	inhibition at 50 µM (HCT-116)
CC1(C)C(Cc2ccc(Cl)cc2)C(=[N+]2CCCC2)C=CN1Cc1ccc(Cl)cc1 (racemic)	1.4 nM	1.6 nM	8980	100%	21 mm	15 mm	20 mm	7 mm	73.9	12.6 µM	170 nM	34 mm	7860	100%
CC1(C)C(Cc2ccc(Cl)cc2)C(=[N+]2CCCCC2)C=CN1Cc1ccc(Cl)cc1 (racemic)	3.8 nM	0.38 nM	2920	100%	22 mm	14 mm	26 mm	7 mm	79.3	11.1 µM	140 nM	28 mm	29200	100%
